Measurements taken from patent US20090028839A1, “Compositions and methods for the prophylaxis and treatment of vaginal infections” (priority 2004, published 2009).

Experiments:
Type in all cases: cell-based
E. coli = experiment: Agar-well inhibition zones of Lactobacillus culture supernatants; settings: 400 μl culture supernatant in agar well
Method: (§1) To test for their antimicrobial activity, all Lactobacillus isolates were grown anaerobically (to eliminate H2O2 production) in an MRS broth for 24 hours. The supernatants were collected and filter sterilized. Agar plates (Human Blood Tween agar for G.vaginalis, and Tryptic Soy agar with 5% sheep blood for other organisms) were inoculated with tested bacteria and 400 μl of each supernatant was added into the wells punched in the agar plates. The antimicrobial activity was determined by the size of the inhibition zones, similar to the disk method used for the determination of antibiotic activity. From our collection of clinical lactobacilli strains, we selected the strain identified as L. rhamnosus 160 since its extracellular product was characterized as having the highest antimicrobial activity, as shown in Table 1.

G. vaginalis ATCC 14018 = experiment: as above; settings: 400 μl culture supernatant in agar well
Method: as §1

Group B Streptococci = experiment: as above; settings: 400 μl culture supernatant in agar well
Method: as §1

Staphylococcus sp. = experiment: as above; settings: 400 μl culture supernatant in agar well
Method: as §1

[1] = tested on: clinical isolates of G. vaginalis; experiment: Antibiotic resistance of clinical isolates
Text: The ability of G. vaginalis to induce HIV expression in vitro was investigated in chronically infected U1 cells by measuring HIV p24 antigen concentration. […] Moreover, we have also determined that clinical isolates of G. vaginalis are often resistant to metronidazol (73%), and clindamycin (38%), two drugs of choice for treatment of BV. […] Thus, the major BV-associated pathogens are able to increase sensitivity of human cells to HIV.

CC(O)C(=O)O (stereo not drawn) [Lactic acid]
Zone of inhibition (E. coli): 1.5 mm | Zone of inhibition (G. vaginalis ATCC 14018): 1.5 mm | Zone of inhibition (Group B Streptococci): 1.5 mm | Zone of inhibition (Staphylococcus sp.): 1.5 mm

CCC[C@@H]1C[C@@H](C(=O)N[C@@H]([C@H]2O[C@H](SC)[C@H](O)[C@@H](O)[C@H]2O)[C@H](C)Cl)N(C)C1 [clindamycin]
Share of clinical isolates of G. vaginalis resistant [1]: 38%

Cc1ncc([N+](=O)[O-])n1CCO [metronidazol]
Share of clinical isolates of G. vaginalis resistant [1]: 73%
